One compound from patent US20170129911A1, “COMPLEXES COMPRISING A PLATINUM COMPOUND AND AN IMMUNE CHECKPOINT INHIBITOR AND RELATED METHODS” (Massachusetts Institute of Technology, priority 2015, published 2017) can be followed below.

Entries after “also recorded” stand apart in the source; their conditions may differ.

Data set [1] deals with human IDO in SKOV3 cells. Briefly: Immunoblotting and qRT-PCR of IDO expression in SKOV3 cells. Conditions: immunoblotting and qRT-PCR. The data set is classed as cell-based. The method, then:
Total RNA was isolated with the Qiagen RNAeasy RNA isolation kit (Hilden, Germany) and cDNA was synthesized with the Applied Biosystems reverse-transcription-kit (Foster City, Calif., USA). qRT-PCR was performed in a Light cycler 480 II thermo cycler with SYBR Green PCR Mastermix (Roche). All primers were separated by at least one intron on the genomic DNA to exclude its amplification. PCR reactions were checked by including no-RT controls, by omission of templates, and by melting curves. Standard curves were generated for each gene. Relative quantification of gene expression was determined by comparison of threshold values. All samples were analyzed in duplicate at two different dilutions. All results were normalized to GAPDH.
Cells were washed with PBS, scraped into SDS-PAGE loading buffer (64 mM Tris-HCl (pH 6.8)/9.6% glycerol/2% SDS/5% β-mercaptoethanol/0.01% Bromophenol Blue), and incubated at 95° C. for 10 min. […] Membranes were blocked in 5% (w/v) bovine serum albumin in PBST (PBS/0.1% Tween 20) and incubated with the appropriate primary antibodies (Cell Signalling Technology and Santa Cruz). After incubation with horseradish peroxidase-conjugated secondary antibodies (Cell Signalling Technology), 1:1000, immuno complexes were detected with the ECL detection reagent (BioRad) and analyzed using UVP biospectrum imaging system fitted with a chemiluminescence filter.
A general note: In western blotting, separated proteins are transferred to a membrane and probed.

A short description of data set [2]: Tolerability/toxicity in mice. Format: in vivo.
For data set [3], the system named is SKOV3 cells. Kind of data set: Subcellular distribution of platinum (GFAAS). The data set is classed as cell-based, human. Conditions: SKOV3, 5 μM, 17 h. On the procedure:
To gain further insight into the mode of action was studied of 1 and 2, the subcellular distribution of platinum. SKOV3 cells were incubated with the drug candidates (5 μM) for 17 h, using cisplatin as a control. The platinum content was measured by using GFAAS.
To measure cellular uptake, ca. 20 million SKOV3 cells were treated with 5 μM compounds 1, 2 and cisplatin at 37° C. for 17 h. The media were removed, and the cells were washed with PBS solution (1 mL×3), harvested, and centrifuged. The cell pellet was suspended in an appropriate volume of PBS to obtain a homogeneous suspension (100 μL). The nuclear and cytoplasmic extraction kit (NE-PER, Thermo Scientific Inc.) was used to extract the separate cytoplasmic, nuclear, and pelleted fractions. The fractions were mineralized with 70% HNO3 and then heated at 95° C. for 10 min. The platinum content was analyzed by GF-AAS. Cellular platinum levels were expressed as pmol of Pt per million cells. Results are presented as the mean of three determinations for each data point.

Data set [4] in a line: Water-octanol partition coefficient (Log P), shake-flask method and GFAAS. The settings on record: octanol/PBS.
Data set [5] is described as follows: Solubility in PBS. Format: physicochemical.
Data set [6] has as its system A2780/CP70 human ovarian cancer cells. Kind of data set: Cytotoxicity MTT assay, A2780/CP70. The data set is classed as cell-based. The settings on record: cisplatin-sensitive and resistant ovarian cancer cell lines. The text has this:
Ovarian carcinoma cells, NIH:OVCAR3, A2780, A2780/CP70, and SKOV3 were purchased from the American Type Culture Collection (ATCC, Rockville Md.). Peripheral blood mononuclear cells (PBMCs) of two different donors were obtained from Zen Bio Inc. (Research Triangle, NC). Cancer cell lines were maintained in Roswell Park Memorial Institute (RPMI) medium (glutamine-free supplemented with 10% fetal bovine serum, Atlanta Biologics, Atlanta Ga.) and 1% penicillin/streptomycin. PBMCs were thawed in specialized medium (10% […], 40% RPMI and 50% FBS) and subsequently cultured in RPMI containing 20% FBS. For T-cell proliferation experiments, PBMCs were stimulated by the addition of phytohemagglutinin (PHA-P). All cells were grown at 310 K in a humidified atmosphere containing 5% CO2. D-1-methyltryptophan, L-tryptophan and L-kynurenine were purchased from Sigma Aldrich.
The colorimetric MTT assay was used to determine the toxicity of 1, 2, and cisplatin. Cells (2×10^3) were seeded in each well of a 96-well plate. […] Cisplatin was prepared as a 5 mM solution in PBS and diluted using media. 1, 2 and C16—Pt-Suc-NHC2H4OH were prepared as 10 mM solution in DMSO and diluted using media. The final volume amount of DMSO in each well was 0.5%, and which was present in the untreated control as well. Cells co-incubated with cisplatin and (D)-1-MT were first pre-treated with 1 mM (D)-1-MT. […] The RPMI/MTT, mixture was aspirated and 100 μL of DMSO was added to dissolve the resulting purple formazan crystals. The absorbance of the solution wells was read at 570 and 650 nm. Absorbance values were normalized to DMSO-containing control wells and plotted as concentration of test compound versus % cell viability. IC50 values were interpolated from the resulting dose dependent curves. The reported IC50 values are the average of at least three independent experiments, each of which consisted of six replicates per concentration level.
(In general: Formazan colour is commonly taken as a measure of viable cells.)

Turning to `CCCCCCCCCCCCCCCCNC(=O)[O][Pt]([NH2])([NH2])([Cl])([Cl])[O]C(=O)CCC(=O)NCCOC(=O)[C@H](N)Cc1cn(C)c2ccccc12` (mixture of isomers) [Compound 2, cis,cis,trans-[Pt(NH3)2Cl2(O2CC2H4OCNHC2H4O2C-D-1MT)(O2CNHC16H33)]], the “IDO protein expression (IDO inhibition)” value in data set [1] is recorded as “effectively block IDO protein expression”. For the same compound, the “toxicity / tolerance in mice” value in data set [2] is on record as “low toxicity in mice; also recorded: mice are tolerant”. Besides, the “platinum content within the nucleus” value in data set [3] is recorded as “comparable to that of cisplatin”. Also, the logP (as a rule, a log measure of how a compound divides between an organic and an aqueous phase) at 3 h in data set [4] was 1.35 ± 0.26. For the same compound, the “solubility in PBS” value in data set [5] is given as “low solubility”. Also, the cross-resistance with cisplatin entry in data set [6] is listed as “no cross-resistance with cisplatin”.
